For series [1] the following is noted: data from U.S. Pat. No. 6,383,471, cited from earlier work.
Series [2] in a line: Solubility tests of active agent in solvent systems. Format: physicochemical. The following applies: for solubility: thermodynamic from solid; for Solubility in the compositions of Table 5 (in words): 3% surfactant, 25% co-solvent and pH adjuster (pH 3.1); for Solubilized miconazole / ketoconazole / itraconazole ± S.D.: Table 5: 1.5% sodium taurocholeate + 1.5% polysorbate 80 + 15% ethanol + 10% propylene glycol + ammonium acetate pH 3.1. How it is done:
General example for the solubility tests
Each of the solutions applied in the solubilization tests were prepared as follows (the specific amount of the components comes from the Tables below):
1. 0.05M ammonium acetate (as pH-adjuster) solution was prepared in a volumetric flask and the pH of this solution was set to pH 3.1 with glacial acetic acid.
2. The specific amount of co-solvent was measured into a beaker and the specific amount of the previously prepared 0.05M ammonium acetate solution was added. The pH of this solution was measured and set to pH 3.1 with glacial acetic acid.
3. The specific amount of surfactant was added to the solution.
4. This solvent system was vigorously shaken until complete homogenization of the solution was achieved.
5. Aliquot amount of this solvent system was measured and the specific amount of the active agent was added to the solution.
The Tables below define the composition of each solution tested and the amount of the active agent which could be solubilized by the applied solvent system.
The amount of the co-solvent is given in % by volume and the amount of the surfactant is given in % by weight in each table.

Series [3] in a line: Stability on dilution with infusions. The following applies: for Concentration of polysorbate 80 necessary to keep miconazole in solution on dilution: co-solvent 20% ethanol + ammonium acetate, pH 3.1, dilution to 200 ml with 5% dextrose or 0.9% sodium chloride infusions. The format is physicochemical. How it is done: A composition called as “concentrate for infusion” should be diluted before administration to patients by a previously determined amount of usual infusion. The usual infusion is chosen preferably from the group of 5% dextrose infusion and 0.9% sodium chloride infusion. It is well known for a skilled person in the art that such a dilute should be stable for at least 48 hours. To reproduce the dilution scheme applied in the case of Monistat® (previously marketed as a concentrate for infusion containing miconazole), one of the compositions of the present invention was diluted with 5% dextrose infusion and 0.9% sodium chloride infusion. Based on the previous results a composition comprising of 0.1% polysorbate 80, 20% ethanol and ammonium acetate pH 3.1 was chosen for further investigation. […]

Setting [4] is: 3% polysorbate 80 + 25% ethanol + ammonium acetate pH 3.1, pH 3.1, aqueous with cosolvent or surfactant or cyclodextrin, Table 5: 3% polysorbate 80 + 25% ethanol + ammonium acetate pH 3.1, read-out: Solubilized miconazole / ketoconazole / itraconazole ± S.D.
The mark [5] stands for this setting: aqueous with cosolvent or surfactant or cyclodextrin, Table 5: 1.5% sodium taurocholeate + 1.5% polysorbate 80 + 15% ethanol + 10% PEG 400 + ammonium acetate pH 3.1, read-out: Solubilized miconazole / ketoconazole / itraconazole ± S.D.
Setting [6] is: pH 3.1, aqueous with cosolvent or surfactant or cyclodextrin, Table 5: 1.5% sodium taurocholeate + 1.5% polysorbate 80 + 25% ethanol + ammonium acetate pH 3.1, read-out: Solubilized miconazole / ketoconazole / itraconazole ± S.D.
Setting [7] is: pH 3.1, aqueous with cosolvent or surfactant or cyclodextrin, Table 5: 3% polysorbate 80 + 15% ethanol + 10% PEG 400 + ammonium acetate pH 3.1, read-out: Solubilized miconazole / ketoconazole / itraconazole ± S.D.
[8] abbreviates: pH 3.1, aqueous with cosolvent or surfactant or cyclodextrin, Table 5: 3% polysorbate 80 + 15% ethanol + 10% propylene glycol + ammonium acetate pH 3.1, read-out: Solubilized miconazole / ketoconazole / itraconazole ± S.D.

Molecules are shown by their SMILES. In brackets after ≈: the same amount, converted by molar mass. Read-outs that look alike come from different tables or passages of the source.

`CCC(C)n1ncn(-c2ccc(N3CCN(c4ccc(OCC5COC(Cn6cncn6)(c6ccc(Cl)cc6Cl)O5)cc4)CC3)cc2)c1=O` (centres unmarked) [itraconazole]: the Solubilized itraconazole is 85 mg/mL in series [1] (solvent system of Example 27); 50 mg/mL in series [1] (solvent system of Example 28); 50 mg/mL in series [1] (solvent system of Example 29); 30 mg/mL in series [1] (solvent system of Example 30); 30 mg/mL in series [1] (solvent system of Example 31). Further, the solubility in series [2] (setting [4]) is 0.057 ± 0.005 mg/mL; in series [2] (setting [5]) it was 0.04 ± 0.001 mg/mL; in series [2] (setting [6]) it was 0.04 ± 0.008 mg/mL; in series [2] (setting [7]) it was 0.054 ± 0.002 mg/mL; in series [2] (setting [8]) it was 0.04 ± 0.001 mg/mL. Also, the “Solubility in the compositions of Table 5 (in words)” value (from here on “Solubility in the compositions”) in series [2] is recorded as “no substantial solubility”. Besides, in series [2], the “Solubilized miconazole / ketoconazole / itraconazole ± S.D.” value was determined as 0.026 ± 0.001 mg/mL.
As for `Clc1ccc(COC(Cn2ccnc2)c2ccc(Cl)cc2Cl)c(Cl)c1` (centres unmarked) [miconazole], the solubility in series [2] (0.05 M ammonium acetate in water, pH 3.1, aqueous buffer, 0.05 M ammonium acetate pH 3.1 in water, read-out: Solubilized miconazole ± S.D.) was 2.24 ± 0.36 mg/mL (≈ 5380 µM); in series [2] (0.05 M calcium gluconate in water, pH 3.1, aqueous buffer, 0.05 M calcium gluconate pH 3.1 in water, read-out: Solubilized miconazole ± S.D.), 0.65 ± 0.06 mg/mL (≈ 1560 µM); in series [2] (0.05 M potassium dihydrogen phosphate in water, pH 3.1, aqueous buffer, 0.05 M potassium dihydrogen phosphate pH 3.1 in water, read-out: Solubilized miconazole ± S.D.) it was 0.77 ± 0.05 mg/mL (≈ 1850 µM); in series [2] (0.10% polysorbate 80 + 5% ethanol + ammonium acetate pH 3.1, pH 3.1, aqueous with cosolvent or surfactant or cyclodextrin, Table 3: 0.10% polysorbate 80 + 5% ethanol + ammonium acetate pH 3.1, read-out: Solubilized miconazole ± S.D.) it was 2.39 ± 0.12 mg/mL; in series [2] (0.1% polysorbate 80 + 10% ethanol + ammonium acetate pH 3.1, pH 3.1, aqueous with cosolvent or surfactant or cyclodextrin, Table 3: 0.1% polysorbate 80 + 10% ethanol + ammonium acetate pH 3.1, read-out: Solubilized miconazole ± S.D.), 4.52 ± 0.03 mg/mL; in series [2] (0.1% polysorbate 80 + 15% ethanol + ammonium acetate pH 3.1, pH 3.1, aqueous with cosolvent or surfactant or cyclodextrin, Table 3: 0.1% polysorbate 80 + 15% ethanol + ammonium acetate pH 3.1, read-out: Solubilized miconazole ± S.D.), 10.8 ± 2.84 mg/mL. The solubility in series [2] (0.1% polysorbate 80 + 20% ethanol + ammonium acetate pH 3.1, pH 3.1, aqueous with cosolvent or surfactant or cyclodextrin, Table 3: 0.1% polysorbate 80 + 20% ethanol + ammonium acetate pH 3.1, read-out: Solubilized miconazole ± S.D.) was 35.1 ± 5.76 mg/mL; in series [2] (0.10% polysorbate 80 + 25% ethanol + ammonium acetate pH 3.1, pH 3.1, aqueous with cosolvent or surfactant or cyclodextrin, Table 2: 0.10% polysorbate 80 + 25% ethanol + ammonium acetate pH 3.1, read-out: Solubilized miconazole ± S.D.) it was 36 ± 2.09 mg/mL; in series [2] (0.1% polysorbate 80 + 25% ethanol + ammonium acetate pH 3.1, pH 3.1, aqueous with cosolvent or surfactant or cyclodextrin, Table 3: 0.1% polysorbate 80 + 25% ethanol + ammonium acetate pH 3.1, read-out: Solubilized miconazole ± S.D.), 36 ± 1.49 mg/mL; in series [2] (0.25% polysorbate 80 + 25% ethanol + ammonium acetate pH 3.1, pH 3.1, aqueous with cosolvent or surfactant or cyclodextrin, Table 2: 0.25% polysorbate 80 + 25% ethanol + ammonium acetate pH 3.1, read-out: Solubilized miconazole ± S.D.), 34.4 ± 1.51 mg/mL; in series [2] (0.50% polysorbate 80 + 25% ethanol + ammonium acetate pH 3.1, pH 3.1, aqueous with cosolvent or surfactant or cyclodextrin, Table 2: 0.50% polysorbate 80 + 25% ethanol + ammonium acetate pH 3.1, read-out: Solubilized miconazole ± S.D.), 44.72 ± 0.14 mg/mL; in series [2] (1.0% polysorbate 80 + 25% ethanol + ammonium acetate pH 3.1, pH 3.1, aqueous with cosolvent or surfactant or cyclodextrin, Table 2: 1.0% polysorbate 80 + 25% ethanol + ammonium acetate pH 3.1, read-out: Solubilized miconazole ± S.D.), 42.6 ± 2.04 mg/mL. Also, the solubility in series [2] (2.0% polysorbate 80 + 25% ethanol + ammonium acetate pH 3.1, pH 3.1, aqueous with cosolvent or surfactant or cyclodextrin, Table 2: 2.0% polysorbate 80 + 25% ethanol + ammonium acetate pH 3.1, read-out: Solubilized miconazole ± S.D.) was 37.9 ± 1.86 mg/mL; in series [2] (3% polysorbate 20 in water, aqueous with cosolvent or surfactant or cyclodextrin, 3% polysorbate 20 in water, read-out: Solubilized miconazole ± S.D.) it was 0.81 ± 0.07 mg/mL (≈ 1950 µM); in series [2] (3% polysorbate 60 in water, aqueous with cosolvent or surfactant or cyclodextrin, 3% polysorbate 60 in water, read-out: Solubilized miconazole ± S.D.), 1.42 ± 0.1 mg/mL (≈ 3410 µM); in series [2] (3.0% polysorbate 80 + 25% ethanol + ammonium acetate pH 3.1, pH 3.1, aqueous with cosolvent or surfactant or cyclodextrin, Table 2: 3.0% polysorbate 80 + 25% ethanol + ammonium acetate pH 3.1, read-out: Solubilized miconazole ± S.D.), 38.9 ± 0.61 mg/mL; in series [2] (setting [4]) it was 34.1 ± 2.95 mg/mL; in series [2] (3% polysorbate 80 in water, aqueous with cosolvent or surfactant or cyclodextrin, 3% polysorbate 80 in water, read-out: Solubilized miconazole ± S.D.), 1.52 ± 0.09 mg/mL (≈ 3650 µM). The solubility in series [2] (4.0% polysorbate 80 + 25% ethanol + ammonium acetate pH 3.1, pH 3.1, aqueous with cosolvent or surfactant or cyclodextrin, Table 2: 4.0% polysorbate 80 + 25% ethanol + ammonium acetate pH 3.1, read-out: Solubilized miconazole ± S.D.) was 43.3 ± 2.61 mg/mL; in series [2] (5.0% polysorbate 80 + 25% ethanol + ammonium acetate pH 3.1, pH 3.1, aqueous with cosolvent or surfactant or cyclodextrin, Table 2: 5.0% polysorbate 80 + 25% ethanol + ammonium acetate pH 3.1, read-out: Solubilized miconazole ± S.D.), 42.7 ± 0.81 mg/mL; in series [2] (25% ethanol in water, aqueous with cosolvent or surfactant or cyclodextrin, 25% ethanol in water, read-out: Solubilized miconazole ± S.D.), 0.021 ± 0.01 mg/mL (≈ 50.5 µM); in series [2] (30% glycerol in water, aqueous with cosolvent or surfactant or cyclodextrin, 30% glycerol in water, read-out: Solubilized miconazole ± S.D.) it was 0.024 ± 0.006 mg/mL (≈ 57.7 µM); in series [2] (30% macrogol 400 in water, aqueous with cosolvent or surfactant or cyclodextrin, 30% macrogol 400 in water, read-out: Solubilized miconazole ± S.D.), 0.022 ± 0.008 mg/mL (≈ 52.9 µM); in series [2] (60% propylene glycol in water, aqueous with cosolvent or surfactant or cyclodextrin, 60% propylene glycol in water, read-out: Solubilized miconazole ± S.D.) it was 0.36 ± 0.12 mg/mL (≈ 865 µM). In addition, the solubility in series [2] (setting [5]) is 34.8 ± 2.36 mg/mL; in series [2] (setting [6]) it was 32.1 ± 2.86 mg/mL; in series [2] (setting [7]), 22 ± 1.62 mg/mL; in series [2] (setting [8]), 10.7 ± 0.69 mg/mL. Also, in series [2], the “Solubility in the compositions” value is reported as “remarkable solubility”. In addition, in series [2], the “Solubilized miconazole / ketoconazole / itraconazole ± S.D.” value was determined as 38.38 ± 1.53 mg/mL. Besides, the entries for the “Concentration of polysorbate 80 necessary to keep miconazole in solution on dilution” value in series [3] (10 mg/ml miconazole in composition), in series [3] (20 mg/ml miconazole in composition) and in series [3] (30 mg/ml miconazole in composition) were 0.1%^, 3% and 3%, respectively. In series [3] (10 ml of 0.1% polysorbate 80, 20% ethanol, ammonium acetate pH 3.1 containing 20 mg/ml miconazole, diluted to 200 ml with 5% dextrose or 0.9% sodium chloride infusion), the “Stability of diluted composition” value was “not stable for 48 hours”.
As to `CC(=O)N1CCN(c2ccc(OCC3COC(Cn4ccnc4)(c4ccc(Cl)cc4Cl)O3)cc2)CC1` (centres unmarked) [ketoconazole], the solubility in series [2] (setting [4]) came out at 139 ± 4.05 mg/mL; in series [2] (setting [5]), 142 ± 2.85 mg/mL; in series [2] (setting [6]) it was 137 ± 8.15 mg/mL; in series [2] (setting [7]), 140 ± 3.99 mg/mL; in series [2] (setting [8]), 124.7 ± 1.16 mg/mL. In addition, the “Solubility in the compositions” value in series [2] is “best solubility”. For the same compound, in series [2], the “Solubilized miconazole / ketoconazole / itraconazole ± S.D.” value came out at 126.54 ± 1.04 mg/mL.

The record behind these values is US20090253712A1, “AQUEOUS SOLVENT SYSTEM FOR SOLUBILIZATION OF AZOLE COMPOUNDS” (SEMMELWEIS EGYETEM, priority 2008, published 2009).
